“And” between values parts separate entries of the source, which are not always exact repeats. Equal values may be shown once. Read-outs that look alike come from different tables or passages of the source.
What was measured:
[1] = system: CHIKV DRDE-07; assay: In vitro screening against CHIKV (CPE inhibition and MTT cell viability); format: cell-based, chikungunya virus; settings: Table S1, CHIKV-infected Vero cells; for CPE: arbitrary score of cytopathic effect at >48 hpi
[2] = system: CHIKV; assay: Immunofluorescence assay, CHIKV E2 mAb; format: cell-based, chikungunya virus
[3] = system: RRV T48 strain; assay: Immunofluorescence and MTT cell viability assays, RRV; format: cell-based, Ross River virus; settings: 300 µM, 36 hpi
[4] = system: CHIKV-E2 protein; assay: Western blot of CHIKV E2 protein; format: cell-based, chikungunya virus; settings: 18 hpi, compared to virus control
[5] = system: CHIKV; assay: Cytopathic effect inhibition and cell viability dose-response assay; format: cell-based, chikungunya virus
[6] = system: CHIKV; assay: Mode of inhibition (time of addition), MTT cell viability; format: cell-based, chikungunya virus; settings: for viability at 300 µM: Chikungunya virus
[7] = system: Vero cells; assay: Cytotoxicity MTT assay in Vero cells (MNTD, CC50); format: cell-based, African green monkey
[8] = Cytotoxicity MTT assay in Vero cells (MNTD, CC50); format: cell-based, African green monkey; settings: African green monkey
[9] = system: RRV T48 strain; assay: Plaque assay, RRV; format: cell-based, Ross River virus; settings: 300 µM; for RRV titer: MOI 0.1; for percent reduction in virus titer: with respect to virus control
[10] = system: CHIKV; assay: Plaque assay, CHIKV; format: cell-based, chikungunya virus; settings: 300 μM, MOI 0.1

For Nc1nc(N)c2cc(F)ccc2n1 [DCR 137, 6-fluoro-quinazoline-2,4-diamine], the CPE [1] was “+ (<30%)”, the “viral fluorescence (immunofluorescence)” value ([2]; 300 µM, CHIKV MOI 0.1, 36 hpi) was “complete abrogation of viral fluorescence” and the “protection compared to ribavirin” value ([2]; CHIKV, immunofluorescence, ribavirin positive control) was “higher protection”. For the same compound, the “green fluorescence (RRV immunofluorescence)” value [3] was “barely detectable”, the CHIKV-E2 protein expression [4] was “significant decrease” and the “cytopathic effect (microscopy)” value ([5]; 150 and 300 µM, CHIKV-infected Vero cells) was “delayed and dose-dependent CPE”. The EC50 ([5]; Chikungunya virus, Vero, CHIKV replication in Vero cells, post-treatment, MTT at 48 hpi) was ~37 µM, the viability at 300 µM ([6]; 2 h, read-out: cell viability, post-treatment) was > 95% and the viability at 300 µM ([6]; read-out: cell viability, pre-treatment) was 15%. The viability at 300 µM ([6]; read-out: cell viability, simultaneous treatment) was 29%, the “effect of pre-treatment or simultaneous treatment on viral infection” value ([6]; pre-treatment 24 h or simultaneous 1 h, CHIKV MOI 1) was “no inhibitory effects” and the MNTD ([7]; Table S1, Vero cells) was 300 µM. The MNTD value ([7]; Vero cells) was > 300 μM and ~ 312 μM, the “cytotoxicity (cell morphology)” value ([7]; Vero cells, 312.5 µM, 48 hpi, microscopy) was “No significant cytotoxicity” and the MNTD ([7]; maximum nontoxic dose in Vero cells, MTT) was 300 µM. For the same compound, the CC50 at 72 h ([8]; Vero cells, MTT) was > 1100 µM, the viability at 72 h ([8]; uninfected Vero cells at MNTD, read-out: cell viability at MNTD) was ~90% and the RRV titer ([9]; 24 hpi, untreated 3.0 × 10^6) was 1.1 × 10^2 PFU/mL. For the same compound, the “percent reduction in virus titer” value ([9]; 24 hpi) was 99.99%, the RRV titer ([9]; 48 hpi, untreated 1.2 × 10^8) was 1.7 × 10^5 PFU/mL and the “percent reduction in virus titer” value ([9]; 48 hpi) was 99.85%. The CHIKV titer ([10]; 24 hpi, virus control 2.8 × 10^6) was 1.8 × 10^2 PFU/mL and the CHIKV titer ([10]; 48 hpi, virus control 9.1 × 10^8) was 1.9 × 10^5 PFU/mL.
With CC(=O)Cc1noc(C(c2ccccc2)c2ccccc2)n1 [DCR79, 1-[5-(diphenylmethyl)-1,2,4-oxadiazol-3-yl]propan-2-one] the “% Cell viability” value ([1]; 72 hpi, MTT assay) was 16.42%, the CPE [1] was “++++ (>60% (++++))” and the MNTD ([7]; Table S1, Vero cells) was 125 µM.

Source: publication PMC10674894 (Viruses, 2023)
